For this series, the system named is New Zealand white rabbit eyes. Description: Eye irritation in rabbit eyes (Draize Test). In kind it is in vivo. The following applies: 50 μl of 1% droperidol; slit lamp biomicroscope. On the procedure: 50 μl of 1% droperidol was used to test for eye irritation in New Zealand white rabbit eyes using the standard procedure of the Draize Test. […] Eyedrops were instilled in the eyes, and the responses of the eyes were examined with a slit lamp biomicroscope.

`O=C(CCCN1CC=C(n2c(=O)[nH]c3ccccc32)CC1)c1ccc(F)cc1` [droperidol, Droperidol]: the Eye irritation entry is reported as “either absent or insignificant”.

For the origin of these results see US20030069232A1, “Topical treatment of ocular hypertension, glaucoma, ischemic retinopathy and age-related macular degeneration with ophthalmic formulation of dopamine antagonists” (priority 1999, published 2003).
